Experimental data as given in article PMC11345766, “Computational Design of Pore-Forming Peptides with Potent Antimicrobial and Anticancer Activities” (Journal of Medicinal Chemistry, 2024).
Where two headings read alike, the source gives them in different places. Ends that are not written are not given here.

Columns and labels:
E. coli (TOP10) = assay: Broth microdilution antimicrobial susceptibility assay; type: cell-based, Escherichia coli
From the text: (§1) To test antimicrobial activity, all peptides were initially screened, in a broth microdilution assay, against Gram-negative Escherichia coli (TOP10) and Gram-positive Staphylococcus carnosus (CCM 4838T) Biosafety Level 1 (BSL-1) bacteria (Table 2). […] Four other mutants (LP3, LP26, LP36, and LP39) had higher activity than LP1 against E. coli, and two mutants (LP23 and LP32) had higher activity than LP1 against S. carnosus. Six mutants (LP29, LP30, LP31, LP33, LP40, and LP43) were not active against one or both bacteria, even at the highest concentration tested (50 μM).
(§2) Antimicrobial activity against E. coli TOP10 and S. carnosus CCM 4838T was tested using the broth microdilution assay. Bacteria were cultured in MHA Petri dish for 24 h, subcultured in an MHB test tube for 6 h at 37 °C, and diluted to 10^6 CFU/mL (OD600). […] Dilution series was prepared for concentrations 50 to 0.1 μM in a flat-bottom 96-well plate, inoculated with bacteria, and incubated for 24 h at 37 °C. Growth control wells were free from test compounds, and sterility control wells were free from bacteria. Bacterial MIC was determined as the lowest concentration of test compounds that inhibited visible growth of bacteria (i.e., no visible turbidity).

[1] = tested on: human red blood cells (HRBCs); details: read-out: Hemolysis toxicity (IC50); 1 h incubation
Procedure: To investigate the toxicity for normal human cells, all peptides were first screened against human red blood cells (HRBCs) using a hemolysis assay (Table 2 and Figure S4).
Hemolysis toxicity was tested against HRBCs. Blood samples, collected from the university hospital, were centrifuged twice at 700 × g and once at 1000 × g for 8 min at 4 °C to obtain erythrocyte pellets. Supernatants were always discarded, and pellets were resuspended in PBS (the same as the antimicrobial susceptibility assay). The final RBC suspension was 0.5% (v/v). Dilution series was prepared for concentrations 50 to 0.1 μM in a V-bottom 96-well plate, followed by the addition of RBC suspension. […] After 1 h of incubation at 37 °C, the well plate was centrifuged at 1000 × g for 10 min at 4 °C. The supernatant, collected in a flat-bottom well plate, was measured for OD415 using Tecan Microplate Reader Infinite F500.

[2] = Calcein dye leakage assay from LUVs; type: biochemical; details: for Calcein leakage (%) from LUVs at P:L 1:100 (mol/mol): pH 7.4; for Calcein leakage: even at a higher P:L ratio of 1:10
From the text: To verify the pore-forming mechanism of action of the designed AMPs, we performed a calcein leakage assay. […] These lipid vesicles were used as simple mimics of bacterial membranes.[58] At the lowest tested peptide-to-lipid (P:L) ratio of 1:100 (mol/mol), three mutants (LP18, LP26, and LP40) caused >90% leakage, which was higher than the leakage caused by LP1 (87%). […] At the same concentration, LP23 caused leakage equivalent to that caused by LP1. Other mutants had lower leakage activity. At a higher P:L ratio of 1:50, all the abovementioned mutants caused 100% leakage, equivalent to that caused by LP1.
Pore-forming activity was tested using a dye leakage assay measuring the leakage of self-quenching fluorescent dye calcein from POPC:POPG (1:1 mol/mol) LUVs. DiD was mixed with lipids (1:500 mol/mol), and lipid film was created by evaporating chloroform, followed by 4 h of desiccation. Dried lipid film was dissolved in calcein buffer (35 mM calcein, 25 mM NaH2PO4·H2O and Na2HPO4·7H2O (3:7 mol/mol), 20 mM NaCl, and 1 mM EDTA). After 10 freeze–thaw cycles, the sample was extruded 50 times through a 100 nm pore size polycarbonate membrane filter. Free calcein in solution was removed using a HiTrap Desalting column. The concentrations of LUVs and peptides were adjusted to 0.02 and 0.1 mM, respectively, in PBS (25 mM NaH2PO4·H2O and Na2HPO4·7H2O (3:7 mol/mol), 100 mM NaCl, and 1 mM EDTA). The investigated P/L ratio was from 1:100 to 1:10 (mol/mol). Fluorescence intensity was measured using a HORIBA Scientific Jobin Yvon FluoroLog-3 Modular Spectrofluorometer (USA). Excitation and emission wavelengths were set to 495 and 520 nm, respectively. Triton X-100 10% caused 100% leakage used for normalization.

S. carnosus (CCM 4838T) = assay: microbe, parasite or virus in culture; type: cell-based, Staphylococcus carnosus; details: CCM 4838, 24 h; read-out: Antimicrobial activity (MIC) S. carnosus (CCM 4838T)
From the text: as §1, §2

[3] = Procedure: (§3) Cytotoxicity against human immortalized keratinocytes HaCaT, human alveolar basal epithelial A549 (derived from adenocarcinoma), and murine macrophages RAW 264.7 was tested using MTT [3-(4,5-dimethylthiazol-2-yl)-2,5-diphenyltetrazolium bromide] assay. Cells were cultured in Dulbecco’s modified Eagle’s medium (DMEM) containing 4 mM glutamine for HaCaT, or 2 mM glutamine for A549 and RAW 264.7 cells, supplemented with 10% heat-inactivated fetal bovine serum (FBS) and antibiotics (0.1 mg/mL penicillin and streptomycin). Nonessential amino acids (NEAA) and sodium pyruvate (1 mM) were added for macrophages. Cell lines were grown in 25 and 75 cm^2 flasks at 37 °C in a humidified atmosphere with 5% CO2. Cells were suspended in DMEM, containing glutamine, NEAA, and sodium pyruvate (as described above), supplemented with 2% FBS, plated in 96-well plates at 4 × 10^4 cells/well, and incubated at 37 °C in a 5% CO2 atmosphere. After overnight incubation, the medium was replaced with fresh DMEM supplemented with peptides at different concentrations: 2, 4, 8, 16, 32, 64, and 128 μM. Negative controls were cells without peptides. After 24 h of peptide treatment at 37 °C in a 5% CO2 atmosphere, medium was replaced with Hank’s buffer (136 mM NaCl, 0.34 mM Na2HPO4, 0.44 mM KH2PO4, 5.4 mM KCl, 4.1 mM NaHCO3, supplemented with 5.5 mM D-glucose) containing 0.5 mg/mL MTT. Mitochondrial dehydrogenases converted soluble yellow dye MTT to insoluble purple formazan. After 4 h of incubation, acidified isopropanol was added to dissolve formazan crystals and measured for OD570 using Tecan microplate reader Infinite M200 (Salzburg, Austria).
[4] = remark: listed apart in the source
Procedure: as §3

Substance | MIC (E. coli (TOP10); TOP10, 24 h) [µM] | IC50 [1] [µM] | Calcein leakage (%) from LUVs at P:L 1:100 (mol/mol) [2] [%] | MIC (S. carnosus (CCM 4838T)) [µM] | MIC (E. coli (TOP10); 24 h, MHB) [µM] | Calcein leakage [2] | IC50 [3] [µM] | IC50 [4] [µM]
Ac-KKKKLKKILKKLFQFINQLDNQLQDIKQNK-NH2 [LP23] | 6.3 | > 50 | 83.3 ± 5.4 | 0.4 | – | – | – | –
H-KKKKLKKILKKLFQFINQLDNQLQDFKQNK-OH [LP26] | – | – | 91.6 ± 2.8 | 0.8 | 0.4 | – | – | –
H-KKKKLKKILKKLFQFINQLDNQLQDIKQNK-OH [LP22] | – | – | 68.0 ± 1.7 | 0.4 | 0.2 | – | – | –
KKKKAKKAAKKAFQFANQADNQAQDAKQNK-NH2 [LP29] | > 50 | > 50 | 0 | > 50 | – | did not cause any leakage | – | –
KKKKLKKILKKLFNFINNLDNNLNDIKNNK-NH2 [LP37] | 0.2 | > 50 | 70.3 ± 1.7 | 0.4 | – | – | – | –
KKKKLKKILKKLFQFIDQLINDLQNIKKKK-NH2 [LP20] | – | – | 38.6 ± 3.5 | 1.6 | 1.6 | – | – | –
KKKKLKKILKKLFQFINQLENQLQEIKQNK-NH2 [LP8] | – | – | 29.2 ± 4.9 | 0.8 | 0.8 | – | – | –
KKKKLKKILKKLFSFISSLDSSLSDIKSSK-NH2 [LP36] | 0.4 | > 50 | 71.5 ± 7.4 | 0.8 | – | – | – | –
KKKKLKKILKKLFTFITTLDTTLTDIKTTK-NH2 [LP34] | 0.8 | > 50 | 79.3 ± 2.4 | 0.8 | – | – | – | –
KKKKLKKILKKLIQLINQLDNQLQDIKQNK-NH2 [LP2] | 6.3 | > 50 | 24.2 ± 2.6 | 1.6 | – | – | – | –
KKKKLKKILKKLWQWINQLDNQLQDIKQNK-NH2 [LP3] | – | – | 29.6 ± 1.2 | 0.8 | 0.4 | – | – | –
KKKKLKKLLKKLFQFLNQLDNQLQDLKQNK-NH2 [LP32] | 1.6 | > 50 | 56.3 ± 3.3 | 0.4 | – | – | < 2 | –
KKKKLRRILRRLFQFINQLDNQLQDIKQNK-NH2 [LP38] | – | – | 76.0 ± 3.3 | 0.4 | 0.2 | – | – | –
KKKKMKKMMKKMFQFMNQMDNQMQDMKQNK-NH2 [LP30] | > 50 | > 50 | 21.9 ± 2.5 | 12.5 | – | – | – | –
KKKKVKKVVKKVFQFVNQVDNQVQDVKQNK-NH2 [LP31] | > 50 | > 50 | 0 | > 50 | – | ≤ 20% | – | > 128
KNQNLDDILNQLFQFINQLKNQLQKIKKKK-NH2 [LP43] | > 50 | > 50 | 64.2 ± 4.6 | 0.8 | – | – | – | –
RRRRLKKILKKLFQFINQLDNQLQDIRQNR-NH2 [LP39] | – | – | 65.5 ± 4.2 | 0.8 | 0.4 | – | – | –
